According to ChEMBL document CHEMBL1128146, “Tricarbonyl 6 arene chromium (0) based antitumor agents” (Bioorg Med Chem Lett, 1995):

Tested on: HCT-116
Experiment: Inhibitory activity against HCT116 tumor cell line
Format: functional, cell-based
Details: Homo sapiens

Row | IC50 | Structure (SMILES)
1 | 0.099 µM | CS(=O)(=O)OCCCN(CCCOS(C)(=O)=O)c1ccccc1
2 | 0.025 µM | CS(=O)(=O)OCCN(CCOS(C)(=O)=O)c1ccccc1
3 | 1.9 µM | CC(C)(C)[Si](C)(C)OCCN(CCO[Si](C)(C)C(C)(C)C)c1ccccc1
